{
  "source": "paper PMC4295010",
  "about": "(Journal of the American Chemical Society, 2014)",
  "key": {"HeLa cells [1]": {"tested_on": "HeLa cells", "test": "MTT cell viability, HeLa", "assay_type": "cell-based"}, "[2]": {"test": "isothermal titration calorimetry", "assay_type": "binding", "conditions": "ITC of 2 with Van, 25 °C, Figure S6"}, "[3]": {"test": "aggregation of 1 by UV absorption change of the supernatant", "assay_type": "physicochemical", "conditions": "over time, Figure S3, varying [Van]0"}, "HeLa cells [4]": {"tested_on": "HeLa cells", "test": "NBD-Van staining of aggregates on HeLa cells, confocal", "assay_type": "cell-based", "conditions": "NBD-Van (6 μM) alone"}},
  "note": "pKd: −log10 of the molar value. Where a SMILES comes first, the peptide text is derived from it. [ ]: non-standard residue; d: D form.",
  "data": [
    {"compound": "CC(=O)N[C@@H](CCCCN)C(=O)NCC(=O)NCC(=O)N[C@H](C)C(=O)N[C@H](C)C(=O)O", "note": "[compound 2] (Ac-KGG[dA][dA]-OH)", "values": [
      {"measurement": "inhibition of proliferation", "setting": "HeLa cells [1]; with addition of Van at 500 μM", "value": "scarcely inhibits"},
      {"measurement": "inhibition of proliferation", "setting": "HeLa cells [1]; without addition of Van, at 500 μM", "value": "scarcely inhibits"},
      {"measurement": "pKd", "setting": "[2]", "value": 3.87},
      {"measurement": "binding ratio n", "setting": "[2]", "value": 1}
    ]},
    {"compound": "CN[C@H](CC(C)C)C(=O)N[C@H]1C(=O)N[C@@H](CC(N)=O)C(=O)N[C@H]2C(=O)N[C@H]3C(=O)N[C@H](C(=O)N[C@H](C(=O)O)c4cc(O)cc(O)c4-c4cc3ccc4O)[C@H](O)c3ccc(c(Cl)c3)Oc3cc2cc(c3O[C@@H]2O[C@H](CO)[C@@H](O)[C@H](O)[C@H]2O[C@H]2C[C@](C)(N)[C@H](O)[C@H](C)O2)Oc2ccc(cc2Cl)[C@H]1O", "note": "[Van, vancomycin, reference compound]", "values": [
      {"measurement": "cytotoxicity", "setting": "HeLa cells [1]; alone, concentration as high as 500 μM, MTT", "value": "innocuous"},
      {"measurement": "amount of Van in the aggregates", "setting": "[3]", "value": "decreases with time"}
    ]},
    {"compound": "7-nitrobenzofurazan-derivatized vancomycin [NBD-Van]", "values": [
      {"measurement": "fluorescent aggregates with HeLa cells", "setting": "HeLa cells [4]", "value": "few aggregates on the cells"}
    ]}
  ]
}
